The values below come from patent publication US10676496B2, “Method for producing flavonoid inclusion compound” (TAIYO KAGAKU CO., LTD., priority 2017, dated 2020).

The nature of data set [1]: Evaluation of storage stability (lemon beverage). Conditions: 0.3% as naringenin-7-glucoside; for presence or absence of the precipitates, 4° C.: 1 month at 4° C.; for presence or absence of the precipitates, 25° C.: 1 month at 25° C. In kind it is physicochemical. Here is the method:
Evaluation of Storage Stability (Lemon Beverage)
Naringin (manufactured by SIGMA), naringenin-7-glucoside (prepared hereinbelow) or a flavonoid inclusion compound-containing composition of Example 109 was added to a commercially available lemon beverage (C1000 Lemon Water, manufactured by HOUSE […] FOODS CORPORATION) so as to have a concentration calculated as 0.3% in terms of naringenin-7-glucoside conversion, the beverage was allowed to stand for 1 month at 4° C. or 25° C., and the presence or absence of the precipitates was then visually observed.
After the termination of the reaction according to Comparative Example 102, the precipitates that were previously allowed to stand at room temperature were recovered, washed with water, recrystallized and dried, to give 13 g of naringenin-7-glucoside having a content of 95% or more. The identity of the product with a reagent naringenin-7-glucoside (Wako) by HPLC and a content thereof were analyzed.

For data set [2] the following is noted: cited from earlier work.
Data set [3] in a line: Evaluation of storage stability (green tea). Type of data set: physicochemical. The following applies: 0.03% as hesperetin-7-glucoside; for presence or absence of the precipitates, 4° C.: 7 days at 4° C.; for presence or absence of the precipitates, 25° C.: 7 days at 25° C. Here is the method:
Evaluation of Storage Stability (Green Tea)
Hesperidin (manufactured by Hamari Chemicals., Ltd.), hesperetin-7-glucoside (prepared in the following), a flavonoid inclusion compound of Example 22 or a composition of flavonoid glycosides of Example 40 was added to a commercially available green tea (“Oi Ocha,” manufactured by ITO EN, LTD.) so as to have a concentration calculated as 0.03% in terms of hesperetin-7-glucoside conversion. The mixture was allowed to stand for 7 days at 4° C. and 25° C., and the presence or absence of the precipitates was then visually observed.
Seven grams of Hesperidin (manufactured by Hamari Chemicals., Ltd.) was added to […] of an aqueous solution, and the solution was adjusted to 70° C. and a pH of 4.5. Thereafter, 0.5 g of naringinase (Amano Enzyme Inc. 155 u/g) was added thereto while stirring, and the solution was recovered and dried, to give 4.2 g of hesperetin-7-glucoside having a content of 96% or more. Identification as being hesperetin-7-glucoside and a content thereof were analyzed by NMR and HPLC in the same manner as mentioned above.

Data set [4] can be described thus: Evaluation of bioavailability. Type of data set: in vivo. From the text: Evaluation of Bioavailability
Nine-week-old Wister rats (male) were given with MF (Oriental Yeast Co., Ltd.) and bred for 7 days, and the rats were then subjected to fasting from the day before the administration of a test substance. Thereafter, 100 μmol/kg (calculated as IQC) of a dried product of Example 16 prepared in the evaluation of the effects of preventing flavor deterioration, a rutin suspension (Alps Pharmaceutical Ind., Co., Ltd., 100 μmol/kg (calculated as IQC)), 1,000 μmol/kg (calculated as HPT-7G) of dried product of Example 22 prepared in the evaluations of the effects of preventing flavor deterioration, and a hesperidin suspension (Hamari Chemicals., Ltd., 1,000 μmol/kg (calculated as HPT-7G)) were orally administered to the rats in a single dose (orally administered by gavage, n=2). Blood collection into heparinized tubes was carried out from tail veins of rats 30 minutes, 1 hour and 3 hours after the administration, and the blood was centrifuged to obtain plasma. In the drawn sera sample, the amounts of quercetin derivatives were measured according to a method by Makino et al (Biol. pharm. Bull., 32(12) 2034, 2009), and the amounts of hesperetin derivatives were measured according to a method by Yamada et al (Biosci. Biotechnol. Biochem, 70(6), 1386, 2006), and analysis was made by applying the sample to high-performance liquid chromatography (SHIMADZU) and using a photodiode array detector (SPD-M30A, SHIMADZU).

Setting [5] is: compared with rutin, hesperidin, or naringin having a rhamnoside structure.

Like-named read-outs stand apart in the source and are kept apart here.

As to `C[C@@H]1O[C@@H](O[C@H]2[C@H](Oc3cc(O)c4c(c3)O[C@H](c3ccc(O)cc3)CC4=O)O[C@H](CO)[C@@H](O)[C@@H]2O)[C@H](O)[C@H](O)[C@H]1O` [Naringin], in data set [1], the “presence or absence of the precipitates, 4° C.” value (shortened to “presence or absence … 4° C.”) was “x (those in which the precipitates were observed were evaluated as x)” and the “presence or absence of the precipitates, 25° C.” value (shortened to “presence or absence … 25° C.”) is given as “x (those in which the precipitates were observed were evaluated as x)”.

`O=C1C[C@@H](c2ccc(O)cc2)Oc2cc(O)cc(O)c21` [naringenin]: in data set [2] (setting [5]), the bioavailability in rats result was “higher”.

As to `COc1ccc(C2CC(=O)c3c(O)cc(OC4OC(CO)C(O)C(O)C4O)cc3O2)cc1O` (stereo not drawn) [Hesperetin-7-Glucoside, hesperetin-7-glucoside], in data set [3], the “presence or absence … 4° C.” value was “x (those in which the precipitates were observed were evaluated as x)” and the “presence or absence … 25° C.” value is recorded as “x (those in which the precipitates were observed were evaluated as x)”. Moreover, in data set [2] (rat, in vivo), the bioavailability in rats result is “higher”.

With `COc1ccc([C@@H]2CC(=O)c3c(O)cc(O[C@@H]4O[C@H](CO[C@@H]5O[C@@H](C)[C@H](O)[C@@H](O)[C@H]5O)[C@@H](O)[C@H](O)[C@H]4O)cc3O2)cc1O` [Hesperidin], the “presence or absence … 4° C.” value in data set [3] is recorded as “x (those in which the precipitates were observed were evaluated as x)”. For the same compound, the “presence or absence … 25° C.” value in data set [3] was “x (those in which the precipitates were observed were evaluated as x)”. Also, in data set [4] (rat plasma, single oral 1,000 μmol/kg (calculated as HPT-7G), 0 to 3 hours), the “AUC, hesperetin” value is 0.082 µM·h. Further, the Hesperetin concentration in data set [4] (rat plasma, single oral 1,000 μmol/kg (calculated as HPT-7G), time of blood drawing 0) was 0 µM; in data set [4] (rat plasma, single oral 1,000 μmol/kg (calculated as HPT-7G), time of blood drawing 0.5 (hours)), 0.003 µM; in data set [4] (rat plasma, single oral 1,000 μmol/kg (calculated as HPT-7G), time of blood drawing 1 (hour)), 0.064 µM; in data set [4] (rat plasma, single oral 1,000 μmol/kg (calculated as HPT-7G), time of blood drawing 3 (hours)), 0 µM.

`C[C@@H]1O[C@@H](OC[C@H]2O[C@@H](Oc3c(-c4ccc(O)c(O)c4)oc4cc(O)cc(O)c4c3=O)[C@H](O)[C@@H](O)[C@@H]2O)[C@H](O)[C@H](O)[C@H]1O` [Rutin Suspension, rutin]: in data set [4] (male, Wister, rat, in vivo, po, 100 umol/kg), the “AUC, Total (quercetin and quercetin derivatives)” value came to 0.1 µM·h.

Consider `O=C1C[C@@H](c2ccc(O)cc2)Oc2cc(O[C@@H]3O[C@H](CO)[C@@H](O)[C@H](O)[C@H]3O)cc(O)c21` [Naringenin-7-glucoside, naringenin-7-glucoside], for which, in data set [1], the “presence or absence … 4° C.” value is “x (those in which the precipitates were observed were evaluated as x)” and the “presence or absence … 25° C.” value was “x (those in which the precipitates were observed were evaluated as x)”. Further, in data set [2] (setting [5]), the bioavailability in rats entry is listed as “higher”.

Consider `O=c1c(O[C@@H]2O[C@H](CO)[C@@H](O)[C@H](O)[C@H]2O)c(-c2ccc(O)c(O)c2)oc2cc(O)cc(O)c12` [Isoquercitrin, isoquercitrin], for which the bioavailability in rats result in data set [2] (setting [5]) is given as “higher”.
